Earlier results on one molecule are cited in patent publication US20180125800A1, “Stable Formulation for Parenteral Administration of Tapentadol” (Gruenenthal GmbH, priority 2015, published 2018).

The conditions of the series: more pronounced at higher pH values.

Consider `CC[C@@H](c1cccc(O)c1)[C@@H](C)CN(C)C` [Tapentadol, (1R,2R)-3-(3-dimethylamino-1-ethyl-2-methyl-propyl)-phenol], for which the antimicrobial properties entry was “exhibits antimicrobial properties”.
